According to patent publication EP0013067A1, “Bicyclic beta-lactam antibacterial agents, their use in pharmaceutical compositions, processes for their preparation and intermediates for use in such processes” (BEECHAM GROUP PLC, priority 1978, dated 1980):
Read-outs that look alike come from different tables or passages of the source.

Legend:
Assay type in all cases: cell-based
[1] = antibacterial activity (general statement, no method given); conditions: prepared and tested by the applicant; no method or organisms given
Pseudomonas aeruginosa A [2] = assay: MIC, microtitre using Nutrient broth; conditions: read-out: MIC Broth
Text: (§1) The ninimum inhibitory concentrations (MIC) cf this compound required to inhibit the growth of various bacteria are tabulated balow: […]

Proteus mirabilis C977 [3] = assay: MIC, microtitre using Nutrient broth
Text: as §1

[4] = system: Staphylococcus aureus Russell; assay: MIC, microtitre using Nutrient broth; conditions: read-out: MIC Broth
Text: as §1

[5] = system: Staphylococcus aureus Oxford; assay: MIC, microtitre using Nutrient broth; conditions: read-out: MIC Broth
Text: as §1

Klebsiella aerogenes A [6] = assay: MIC, microtitre using Nutrient broth; conditions: read-out: MIC Broth
Text: as §1

Escherichia coli JT 39 [7] = assay: MIC, microtitre using Nutrient broth
Text: as §1

Escherichia coli 0111 [8] = assay: MIC, microtitre using Nutrient broth; conditions: Microtitre using Nutrient broth, inoculum 0.001 ml of an undilute overnight broth culture
Text: as §1

Pseudomonas aeruginosa A [9] = assay: MIC, DST agar + 10% horse blood; conditions: read-out: MIC Agar
Text: as §1

Streptococcus faecalis I = assay: MIC, DST agar + 10% horse blood; conditions: Enterococcus faecalis, read-out: MIC Agar
Text: as §1

Citrobacter freundii E8 = assay: MIC, DST agar + 10% horse blood
Text: as §1

Proteus vulgaris W091 = assay: MIC, DST agar + 10% horse blood
Text: as §1

Proteus mirabilis C977 [10] = assay: MIC, DST agar + 10% horse blood
Text: as §1

[11] = system: Salmonella typhimurium CT10; assay: MIC, DST agar + 10% horse blood; conditions: Salmonella enterica, read-out: MIC Agar
Text: as §1

Proteus morganii I580 = assay: MIC, DST agar + 10% horse blood; conditions: Morganella morganii
Text: as §1

[12] = system: Staphylococcus aureus 1517; assay: MIC, DST agar + 10% horse blood
Text: as §1

Serratia marcescens US20 = assay: MIC, DST agar + 10% horse blood
Text: as §1

[13] = system: Staphylococcus aureus Russell; assay: MIC, DST agar + 10% horse blood; conditions: read-out: MIC Agar
Text: as §1

[14] = system: Staphylococcus aureus Oxford; assay: MIC, DST agar + 10% horse blood; conditions: read-out: MIC Agar
Text: as §1

[15] = system: Streptococcus pneumoniae CN33; assay: MIC, DST agar + 10% horse blood
Text: as §1

Klebsiella aerogenes A [16] = assay: MIC, DST agar + 10% horse blood; conditions: read-out: MIC Agar
Text: as §1

Bacillus subtilis A = assay: MIC, DST agar + 10% horse blood; conditions: read-out: MIC Agar
Text: as §1

E. coli ESS = assay: MIC, DST agar + 10% horse blood; conditions: Escherichia coli, inoculum 0.001 ml of an undilute overnight broth culture
Text: as §1

[17] = system: Streptococcus pyogenes CN10; assay: MIC, DST agar + 10% horse blood
Text: as §1

Proteus rettgeri WM16 = assay: MIC, DST agar + 10% horse blood; conditions: Providencia rettgeri
Text: as §1

Escherichia coli JT 39 [18] = assay: MIC, DST agar + 10% horse blood
Text: as §1

Escherichia coli 0111 [19] = assay: MIC, DST agar + 10% horse blood; conditions: Escherichia coli 0111, inoculum 0.001 ml of an undilute overnight broth culture
Text: as §1

Enterobacter cloacae N1 = assay: MIC, DST agar + 10% horse blood; conditions: Enterobacter cloacae, N1, read-out: MIC Agar
Text: as §1

Shigella sonnei MB 11967 = assay: MIC, DST agar + 10% horse blood; conditions: MB11967, inoculum 0.001 ml of an undilute overnight broth culture
Text: as §1

[20] = Staphylococcus aureus Russell, Microtitre using Nutrient broth, inoculum 0.001 ml of an undilute overnight broth culture
[21] = Staphylococcus aureus Oxford, Microtitre using Nutrient broth, inoculum 0.001 ml of an undilute overnight broth culture
[22] = Staphylococcus aureus Russell, DST agar + 10% horse blood, inoculum 0.001 ml of an undilute overnight broth culture
[23] = Staphylococcus aureus Oxford, DST agar + 10% horse blood, inoculum 0.001 ml of an undilute overnight broth culture
[24] = Bacillus subtilis A, DST agar + 10% horse blood, inoculum 0.001 ml of an undilute overnight broth culture
[25] = Streptococcus pyogenes CN10, DST agar + 10% horse blood, inoculum 0.001 ml of an undilute overnight broth culture, read-out: MIC Agar
[26] = Proteus mirabilis, C977, read-out: MIC Broth
[27] = Escherichia coli, JT39, read-out: MIC Broth
[28] = Citrobacter freundii, E8, read-out: MIC Agar
[29] = Proteus vulgaris, W091, read-out: MIC Agar
[30] = Proteus mirabilis, C977, read-out: MIC Agar
[31] = Staphylococcus aureus, 1517, read-out: MIC Agar
[32] = Serratia marcescens, US20, read-out: MIC Agar
[33] = Streptococcus pneumoniae, CN33, read-out: MIC Agar
[34] = Streptococcus pyogenes, CN10, read-out: MIC Agar
[35] = Escherichia coli, JT39, read-out: MIC Agar

Compound | MIC [4, 20] [µg/mL] | MIC [5, 21] [µg/mL] | MIC (Escherichia coli 0111 [8]) [µg/mL] | MIC [13, 22] [µg/mL] | MIC [14, 23] [µg/mL] | MIC (Bacillus subtilis A; [24]) [µg/mL] | MIC (E. coli ESS) [µg/mL] | MIC [17, 25] [µg/mL] | MIC (Escherichia coli 0111 [19]) [µg/mL] | MIC (Pseudomonas aeruginosa A [2]; Pseudomonas aeruginosa) [µg/mL] | MIC (Proteus mirabilis C977 [3]; [26]) [µg/mL] | MIC ([4]; Staphylococcus aureus) [µg/mL] | MIC ([5]; Staphylococcus aureus) [µg/mL] | MIC (Klebsiella aerogenes A [6]; Klebsiella aerogenes) [µg/mL] | MIC (Escherichia coli JT 39 [7]; [27]) [µg/mL] | MIC (Pseudomonas aeruginosa A [9]; Pseudomonas aeruginosa) [µg/mL] | MIC ([13]; Staphylococcus aureus) [µg/mL] | MIC ([14]; Staphylococcus aureus) [µg/mL] | MIC [15, 33] [µg/mL] | MIC [17, 34] [µg/mL] | further results
O=C(O)C1=CSC2CC(=O)N12 (stereo not drawn) |  |  |  |  |  |  |  |  |  |  |  |  |  |  |  |  |  |  |  |  | antibacterial activity [1]: somewhat disappointing degree of antibacterial activity
CC(=O)NCCOCC1=C(C(=O)O)N2C(=O)CC2S1 (stereo not drawn) [compound 23, Sodium 2-(2-acetamidoethoxy)methylponom-3-carooxylate] | 16 | 4 | 31 | 25 | 2.5 | 2.5 | 10 | 1 | 25 |  |  |  |  |  |  |  |  |  |  |  | MIC (Pseudomonas aeruginosa A [2]; Pseudomonas aeruginosa A, Microtitre using Nutrient broth, inoculum 0.001 ml of an undilute overnight broth culture): > 500 µg/mL; MIC (Proteus mirabilis C977 [3]; Proteus mirabilis C977, Microtitre using Nutrient broth, inoculum 0.001 ml of an undilute overnight broth culture, read-out: MIC Broth): 31 µg/mL; MIC (Klebsiella aerogenes A [6]; Klebsiella aerogenes A, Microtitre using Nutrient broth, inoculum 0.001 ml of an undilute overnight broth culture): 62 µg/mL; MIC (Escherichia coli JT 39 [7]; JT39, Escherichia coli JT 39, Microtitre using Nutrient broth, inoculum 0.001 ml of an undilute overnight broth culture, read-out: MIC Broth): 250 µg/mL; MIC (Pseudomonas aeruginosa A [9]; Pseudomonas aeruginosa A, DST agar + 10% horse blood, inoculum 0.001 ml of an undilute overnight broth culture): > 100 µg/mL; MIC (Streptococcus faecalis I; Streptococcus faecalis I, DST agar + 10% horse blood, inoculum 0.001 ml of an undilute overnight broth culture): > 100 µg/mL; MIC (Citrobacter freundii E8; Citrobacter freundii E8, DST agar + 10% horse blood, inoculum 0.001 ml of an undilute overnight broth culture, read-out: MIC Agar): 25 µg/mL; MIC (Proteus vulgaris W091; Proteus vulgaris W091, DST agar + 10% horse blood, inoculum 0.001 ml of an undilute overnight broth culture, read-out: MIC Agar): > 100 µg/mL; MIC (Proteus mirabilis C977 [10]; Proteus mirabilis C977, DST agar + 10% horse blood, inoculum 0.001 ml of an undilute overnight broth culture, read-out: MIC Agar): 25 µg/mL; MIC ([11]; Salmonella typhimurium CT10, DST agar + 10% horse blood, inoculum 0.001 ml of an undilute overnight broth culture): 25 µg/mL; MIC (Proteus morganii I580; Proteus morganii I580, DST agar + 10% horse blood, inoculum 0.001 ml of an undilute overnight broth culture, read-out: MIC Agar): > 100 µg/mL; MIC ([12]; Staphylococcus aureus 1517, DST agar + 10% horse blood, inoculum 0.001 ml of an undilute overnight broth culture, read-out: MIC Agar): 50 µg/mL; MIC (Serratia marcescens US20; Serratia marcescens US20, DST agar + 10% horse blood, inoculum 0.001 ml of an undilute overnight broth culture, read-out: MIC Agar): 100 µg/mL; MIC ([15]; Streptococcus pneumoniae CN33, DST agar + 10% horse blood, inoculum 0.001 ml of an undilute overnight broth culture, read-out: MIC Agar): 0.5 µg/mL; MIC (Klebsiella aerogenes A [16]; Klebsiella aerogenes A, DST agar + 10% horse blood, inoculum 0.001 ml of an undilute overnight broth culture): 100 µg/mL; MIC (Proteus rettgeri WM16; Proteus rettgeri WM16, DST agar + 10% horse blood, inoculum 0.001 ml of an undilute overnight broth culture, read-out: MIC Agar): > 100 µg/mL; MIC (Escherichia coli JT 39 [18]; JT39, Escherichia coli JT 39, DST agar + 10% horse blood, inoculum 0.001 ml of an undilute overnight broth culture, read-out: MIC Agar): > 100 µg/mL
COCOCC1=C(C(=O)[O-])N2C(=O)C[C@H]2S1.[Na+] [compound 25, Sodium 2-methoxymethoxymethylpenem-3-carboxylate] |  |  | 16 |  |  |  | 2.5 |  | 5 | 500 | 16 | 8 | 2 | 16 | 125 | > 50 | 5 | 2.5 | 0.2 | 0.5 | MIC (Streptococcus faecalis I): 50 µg/mL; MIC (Citrobacter freundii E8; [28]): 12.5 µg/mL; MIC (Proteus vulgaris W091; [29]): > 50 µg/mL; MIC (Proteus mirabilis C977 [10]; [30]): 12.5 µg/mL; MIC ([11]; TYPHIMURIUM): 5 µg/mL; MIC (Proteus morganii I580; I580, read-out: MIC Agar): > 50 µg/mL; MIC [12, 31]: > 50 µg/mL; MIC (Enterobacter cloacae N1): > 50 µg/mL; MIC (Serratia marcescens US20; [32]): 25 µg/mL; MIC (Klebsiella aerogenes A [16]; Klebsiella aerogenes): 25 µg/mL; MIC (Bacillus subtilis A; Bacillus subtilis): 1.2 µg/mL; MIC (Shigella sonnei MB 11967): 5 µg/mL; MIC (Proteus rettgeri WM16; WM16, read-out: MIC Agar): 25 µg/mL; MIC (Escherichia coli JT 39 [18]; [35]): > 50 µg/mL
CC(=O)NCOCC1=C(C(=O)[O-])N2C(=O)C[C@H]2S1.[Na+] [compound 29, Sodium 2-acetamidomethoxymethylpenem-3-carboxylate] |  |  | 16 |  |  |  | 2.5 |  | 5 | > 500 | 31 | 16 | 8 | 62 | 125 | > 50 | 12.5 | 2.5 | 0.2 | 0.5 | MIC (Streptococcus faecalis I): 50 µg/mL; MIC (Citrobacter freundii E8; [28]): 5 µg/mL; MIC (Proteus vulgaris W091; [29]): > 50 µg/mL; MIC (Proteus mirabilis C977 [10]; [30]): 12.5 µg/mL; MIC ([11]; TYPHIMURIUM): 5 µg/mL; MIC (Proteus morganii I580; I580, read-out: MIC Agar): > 50 µg/mL; MIC [12, 31]: 50 µg/mL; MIC (Enterobacter cloacae N1): > 50 µg/mL; MIC (Serratia marcescens US20; [32]): 25 µg/mL; MIC (Klebsiella aerogenes A [16]; Klebsiella aerogenes): 50 µg/mL; MIC (Bacillus subtilis A; Bacillus subtilis): 1.2 µg/mL; MIC (Shigella sonnei MB 11967): 5 µg/mL; MIC (Proteus rettgeri WM16; WM16, read-out: MIC Agar): 50 µg/mL; MIC (Escherichia coli JT 39 [18]; [35]): > 50 µg/mL
CCOC(C)OCC1=C(C(=O)[O-])N2C(=O)C[C@H]2S1.[Na+] (stereo partly drawn) [compound 34, Sodium 2-(1-ethoxyethoxy)methylpenem-3-carboxylate] |  |  |  |  |  |  |  |  |  |  |  |  |  |  |  |  | 10 | 2.5 | 1 | 1 | 
CNC(=O)OCC1=C(C(=O)O)N2C(=O)CC2S1 (stereo not drawn) [compound 36, Sodium 2-N-methylcarbamoyloxymethylpenem-3-carboxylate] | 16 | 8 |  | 12.5 | 12.5 | 2.5 |  | 25 |  |  |  |  |  |  |  |  |  |  |  |  | 
